Values of other authors in PubChem BioAssay AID1259409 (Chemical Carcinogenesis Research Information System (CCRIS), 2018).

System: rodent chemically induced tumor inhibition, incidence and multiplicity
Test: CCRIS tumor inhibitor studies
Details: Carcinogen: 7,12-DIMETHYLBENZ[A]ANTHRACENE, 57-97-6, Route [Inhibitor]: ORAL, Promoter: NONE USED

For `O=[Se](O)O`, the “tumour outcome (control, treated, inhibition, significance)” value (Dose [Inhibitor]: 1 PPM IN DIET DAILY STARTING 1 WK PRIOR TO CARCINOGEN TREATMENT AND CONTINUING FOR DURATION OF STUDY (STUDY DURATION: 9, Species: MOUSE, Strain/Sex: BD2F1/FEMALE, Target Tissue: Type of Lesion: MAMMARY GLAND: TUMOR, Dose [Carcinogen]: 1 MG IN 0.2 ML COTTONSEED OIL 1/WK FOR 6 WK STARTING AT 8 WK OF AGE) is given as 18/32 (56%), 8/32 (25%), 55%, not calculated, the “tumour outcome (control, treated, inhibition, significance)” value (Dose [Inhibitor]: 1.5 PPM IN 5% CORN OIL DIET DAILY STARTING 29 D BEFORE CARCINOGEN TREATMENT AND CONTINUING FOR DURATION OF STUDY (STUDY, Species: RAT, Strain/Sex: SPRAGUE-DAWLEY/FEMALE, Target Tissue: Type of Lesion: MAMMARY GLAND: ADENOCARCINOMA, Dose [Carcinogen]: 5 MG IN CORN OIL ONCE AT 50 D OF AGE) is given as 12/30 (40%), 9/31 (29%), 28%, not significant and the “tumour outcome (control, treated, inhibition, significance)” value (Dose [Inhibitor]: 1.5 PPM IN 25% CORN OIL DIET DAILY STARTING 29 D BEFORE CARCINOGEN TREATMENT AND CONTINUING FOR DURATION OF STUDY (STUDY, Species: RAT, Strain/Sex: SPRAGUE-DAWLEY/FEMALE, Target Tissue: Type of Lesion: MAMMARY GLAND: ADENOCARCINOMA, Dose [Carcinogen]: 5 MG IN CORN OIL ONCE AT 50 D OF AGE) is given as 21/30 (70%), 16/29 (55%), 21%, not significant. The “tumour outcome (control, treated, inhibition, significance)” value (Dose [Inhibitor]: 2 PPM IN DIET DAILY STARTING 1 WK PRIOR TO CARCINOGEN TREATMENT AND CONTINUING FOR DURATION OF STUDY (STUDY DURATION: 9, Species: MOUSE, Strain/Sex: BALB/FEMALE, Target Tissue: Type of Lesion: MAMMARY GLAND: TUMOR, Dose [Carcinogen]: 1 MG IN 0.2 ML COTTONSEED OIL 1/WK FOR 6 WK STARTING AT 8 WK OF AGE) was 11/28 (39%), 2/28 (7%), 82%, not calculated, the “tumour outcome (control, treated, inhibition, significance)” value (Dose [Inhibitor]: 2 PPM IN DIET DAILY STARTING 1 WK PRIOR TO CARCINOGEN TREATMENT AND CONTINUING FOR DURATION OF STUDY (STUDY DURATION: 9, Species: MOUSE, Strain/Sex: BD2F1/FEMALE, Target Tissue: Type of Lesion: MAMMARY GLAND: TUMOR, Dose [Carcinogen]: 1 MG IN 0.2 ML COTTONSEED OIL 1/WK FOR 6 WK STARTING AT 8 WK OF AGE) was 18/32 (56%), 5/32 (16%), 71%, not calculated and the “tumour outcome (control, treated, inhibition, significance)” value (Dose [Inhibitor]: 2.5 MG/KG DIET DAILY STARTING 2 WK BEFORE CARCINOGEN TREATMENT AND CONTINUING FOR DURATION OF STUDY (STUDY DURATION: 26, Species: RAT, Strain/Sex: SPRAGUE-DAWLEY/FEMALE, Target Tissue: Type of Lesion: MAMMARY GLAND: ADENOCARCINOMA, Dose [Carcinogen]: 10 MG ONCE AT 50 D OF AGE) was 23/25 (92%), 18/25(72%), 22%, not significant. For the same compound, the “tumour outcome (control, treated, inhibition, significance)” value (Dose [Inhibitor]: 2.5 MG/KG DIET DAILY STARTING 2 WK BEFORE CARCINOGEN TREATMENT AND CONTINUING FOR DURATION OF STUDY (STUDY DURATION: 27, Species: RAT, Strain/Sex: SPRAGUE-DAWLEY/FEMALE, Target Tissue: Type of Lesion: MAMMARY GLAND: ADENOCARCINOMA, Dose [Carcinogen]: 10 MG ONCE AT 50 D OF AGE) was 28/30 (93%), 23/30(77%), 17%, not significant, the “tumour outcome (control, treated, inhibition, significance)” value (Dose [Inhibitor]: 2.5 PPM IN 5% CORN OIL DIET DAILY STARTING 29 D BEFORE CARCINOGEN TREATMENT AND CONTINUING FOR DURATION OF STUDY (STUDY, Species: RAT, Strain/Sex: SPRAGUE-DAWLEY/FEMALE, Target Tissue: Type of Lesion: MAMMARY GLAND: ADENOCARCINOMA, Dose [Carcinogen]: 5 MG IN CORN OIL ONCE AT 50 D OF AGE) was 12/30 (40%), 7/29 (24%), 40%, not significant and the “tumour outcome (control, treated, inhibition, significance)” value (Dose [Inhibitor]: 2.5 PPM IN 5% CORN OIL DIET DAILY STARTING 29 D BEFORE CARCINOGEN TREATMENT AND CONTINUING FOR DURATION OF STUDY (STUDY, Species: RAT, Strain/Sex: SPRAGUE-DAWLEY/FEMALE, Target Tissue: Type of Lesion: MAMMARY GLAND: ADENOCARCINOMA, Dose [Carcinogen]: 10 MG IN CORN OIL ONCE AT 50 D OF AGE) was 21/30 (70%), 13/29 (45%), 36%, p<0.05. The “tumour outcome (control, treated, inhibition, significance)” value (Dose [Inhibitor]: 2.5 PPM IN 5% CORN OIL DIET DAILY STARTING AT WEANING AND CONTINUING FOR DURATION OF STUDY (STUDY DURATION: 25 WK), Species: RAT, Strain/Sex: SPRAGUE-DAWLEY/FEMALE, Target Tissue: Type of Lesion: MAMMARY GLAND: ADENOCARCINOMA, Dose [Carcinogen]: 5 MG ONCE AT AGE 50 D) was 40%, 24%, 40%, not calculated, the “tumour outcome (control, treated, inhibition, significance)” value (Dose [Inhibitor]: 2.5 PPM IN 25% CORN OIL DIET DAILY STARTING 29 D BEFORE CARCINOGEN TREATMENT ANDCONTINUING FOR DURATION OF STUDY (STUDY, Species: RAT, Strain/Sex: SPRAGUE-DAWLEY/FEMALE, Target Tissue: Type of Lesion: MAMMARY GLAND: ADENOCARCINOMA, Dose [Carcinogen]: 5 MG IN CORN OIL ONCE AT 50 D OF AGE) was 21/30 (70%), 10/30 (33%), 53%, p<0.01 and the “tumour outcome (control, treated, inhibition, significance)” value (Dose [Inhibitor]: 2.5 PPM IN 25% CORN OIL DIET DAILY STARTING AT WEANING AND CONTINUING FOR DURATION OF STUDY (STUDY DURATION: 25 WK), Species: RAT, Strain/Sex: SPRAGUE-DAWLEY/FEMALE, Target Tissue: Type of Lesion: MAMMARY GLAND: ADENOCARCINOMA, Dose [Carcinogen]: 5 MG ONCE AT AGE 50 D) was 70%, 33%, 53%, not calculated. The “tumour outcome (control, treated, inhibition, significance)” value (Dose [Inhibitor]: 2.5 PPM IN HIGH-SATURATED FAT DIET CONTAINING 1% CORN OIL AND 24% HYDROGENATED COCONUT OIL DAILY STARTING AT WEANING AND, Species: RAT, Strain/Sex: SPRAGUE-DAWLEY/FEMALE, Target Tissue: Type of Lesion: MAMMARY GLAND: TUMOR, Dose [Carcinogen]: 5 MG ONCE AT AGE 50 D) was 7/25 (28%), 5/25 (20%), 29%, not significant, the “tumour outcome (control, treated, inhibition, significance)” value (Dose [Inhibitor]: 2.5 PPM IN HIGH-SATURATED FAT DIET CONTAINING 1% CORN OIL AND 24% HYDROGENATED COCONUT OIL DAILY STARTING AT WEANING AND, Species: RAT, Strain/Sex: SPRAGUE-DAWLEY/FEMALE, Target Tissue: Type of Lesion: MAMMARY GLAND: TUMOR, Dose [Carcinogen]: 10 MG ONCE AT AGE 50 D) was 16/25 (64%), 8/24 (33%), 48%, p<0.05 and the “tumour outcome (control, treated, inhibition, significance)” value (Dose [Inhibitor]: 4 MG/KG DIET DAILY FOR 28 WK STARTING 2 WK BEFORE START OF CARCINOGEN TREATMENT AND CONTINUING FOR DURATION OF STUDY (ST, Species: RAT, Strain/Sex: SPRAGUE-DAWLEY/FEMALE, Target Tissue: Type of Lesion: MAMMARY GLAND: TUMOR, Dose [Carcinogen]: 5 MG IN CORN OIL 1/WK FOR 3 WK) was 90%, 53%, 41%, p<0.01.
